According to the supplement of paper PMC11208160:

Test: recombinant barcode read abundance after kanamycin selection (control-corrected) (log10(CPM+1)); higher = more efficient recombination; sequences stand for … in AGTGCAGAGAAAATCGGCCAGTTTTCTCTGCCTGCAGTCCGCATGCCGT…ATTTATGCAGCGGACTGCCTTTCTCCCAAAGTGATAAACCGGACAGTATCATGGACCGGTTTTCCCGGTAATCCGTATTTGCAAGGTTGGTTTCACT; site = the 11-nt target
How it was run: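 Recombination efficiency in this pooled E. coli screen uses counts per million of barcodes at recombinant junctions, averaged and corrected against the control. The reported form is log10(CPM+1). Two replicates were plated on chloramphenicol/ampicillin LB agar as control and two on chloramphenicol/ampicillin/kanamycin with 0.1 mM IPTG.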

| Sequence | recombinant barcode read abundance (log10) |
| --- | --- |
| GAGTCCAGATGGGTTCTAACCTGTTGCGTAG [GAGTCCACTAC_LTGcore_GA_RTGcore_CT] (site GAGTCCACTAC) (LTG core: GA, RTG core: CT) | 0.294 |
| GAGTCCAGCTGGGTTCTAACCTGTTGCGTGC [GAGTCCACTAC_LTGcore_GC_RTGcore_GC] (site GAGTCCACTAC) (LTG core: GC, RTG core: GC) | 0.174 |
| GAGTCCAGGTGGGTTCTAACCTGTTGCGTCC [GAGTCCACTAC_LTGcore_GG_RTGcore_GG] (site GAGTCCACTAC) (LTG core: GG, RTG core: GG) | 0.0822 |
| GAGTCCATATGGGTTCTAACCTGTTGCGTTA [GAGTCCACTAC_LTGcore_TA_RTGcore_TA] (site GAGTCCACTAC) (LTG core: TA, RTG core: TA) | 0.0207 |
| GAGTCCATCTGGGTTCTAACCTGTTGCGTAG [GAGTCCACTAC_LTGcore_TC_RTGcore_CT] (site GAGTCCACTAC) (LTG core: TC, RTG core: CT) | 0.0202 |
| GAGTCCATCTGGGTTCTAACCTGTTGCGTGA [GAGTCCACTAC_LTGcore_TC_RTGcore_TC] (site GAGTCCACTAC) (LTG core: TC, RTG core: TC) | 0.0654 |
| GAGTCCATTTGGGTTCTAACCTGTTGCGTAG [GAGTCCACTAC_LTGcore_TT_RTGcore_CT] (site GAGTCCACTAC) (LTG core: TT, RTG core: CT) | 0.0725 |
| GAGTCCTAATGGGTTCTAACCTGTTGCCTAG [GAGTCCTCTAG_LTGcore_AA_RTGcore_CT] (site GAGTCCTCTAG) (LTG core: AA, RTG core: CT) | 0.149 |
| GAGTCCTAATGGGTTCTAACCTGTTGCCTTT [GAGTCCTCTAG_LTGcore_AA_RTGcore_AA] (site GAGTCCTCTAG) (LTG core: AA, RTG core: AA) | 0.11 |
| GAGTCCTCTTGGGTTCTAACCTGTTGCCTCA [GAGTCCTCTAG_LTGcore_CT_RTGcore_TG] (site GAGTCCTCTAG) (LTG core: CT, RTG core: TG) | 0.316 |
| GAGTCCTCTTGGGTTCTAACCTGTTGCCTCG [GAGTCCTCTAG_LTGcore_CT_RTGcore_CG] (site GAGTCCTCTAG) (LTG core: CT, RTG core: CG) | 1.19 |
| GAGTCCTCTTGGGTTCTAACCTGTTGCCTGT [GAGTCCTCTAG_LTGcore_CT_RTGcore_AC] (site GAGTCCTCTAG) (LTG core: CT, RTG core: AC) | 0.0922 |
| GAGTCCTGGTGGGTTCTAACCTGTTGCCTAG [GAGTCCTCTAG_LTGcore_GG_RTGcore_CT] (site GAGTCCTCTAG) (LTG core: GG, RTG core: CT) | 0.165 |
| GAGTCCTGTTGGGTTCTAACCTGTTGCCTAG [GAGTCCTCTAG_LTGcore_GT_RTGcore_CT] (site GAGTCCTCTAG) (LTG core: GT, RTG core: CT) | 0.165 |
| GAGTCCTTGTGGGTTCTAACCTGTTGCCTAG [GAGTCCTCTAG_LTGcore_TG_RTGcore_CT] (site GAGTCCTCTAG) (LTG core: TG, RTG core: CT) | 0.0483 |
| GCGCGACAGTGGGTTCTAACCTGTTGCTTCT [GCGCGACCTAA_LTGcore_AG_RTGcore_AG] (site GCGCGACCTAA) (LTG core: AG, RTG core: AG) | 0.313 |
| GCGCGACATTGGGTTCTAACCTGTTGCTTAG [GCGCGACCTAA_LTGcore_AT_RTGcore_CT] (site GCGCGACCTAA) (LTG core: AT, RTG core: CT) | 0.0488 |
| GCGCGACATTGGGTTCTAACCTGTTGCTTAT [GCGCGACCTAA_LTGcore_AT_RTGcore_AT] (site GCGCGACCTAA) (LTG core: AT, RTG core: AT) | 0.493 |
| GCGCGACCTTGGGTTCTAACCTGTTGCTTAG [GCGCGACCTAA_LTGcore_CT_RTGcore_CT] (site GCGCGACCTAA) (LTG core: CT, RTG core: CT) | 0.515 |
| GCGCGACGATGGGTTCTAACCTGTTGCTTTC [GCGCGACCTAA_LTGcore_GA_RTGcore_GA] (site GCGCGACCTAA) (LTG core: GA, RTG core: GA) | 0.0229 |
| GCGCGACTGTGGGTTCTAACCTGTTGCTTAG [GCGCGACCTAA_LTGcore_TG_RTGcore_CT] (site GCGCGACCTAA) (LTG core: TG, RTG core: CT) | 0.0192 |
| GCGCGACTTTGGGTTCTAACCTGTTGCTTAA [GCGCGACCTAA_LTGcore_TT_RTGcore_TT] (site GCGCGACCTAA) (LTG core: TT, RTG core: TT) | 0.108 |
| GCGGGACCGTGGGTTCTAACCTGTTGCCTCG [GCGGGACCTAG_LTGcore_CG_RTGcore_CG] (site GCGGGACCTAG) (LTG core: CG, RTG core: CG) | 0.248 |

| Sequence | recombinant barcode read abundance (log10) |
| --- | --- |
| GCGGGACCTTGGGTTCTAACCTGTTGCCTAA [GCGGGACCTAG_LTGcore_CT_RTGcore_TT] (site GCGGGACCTAG) (LTG core: CT, RTG core: TT) | 1.15 |
| GCGGGACCTTGGGTTCTAACCTGTTGCCTAC [GCGGGACCTAG_LTGcore_CT_RTGcore_GT] (site GCGGGACCTAG) (LTG core: CT, RTG core: GT) | 0.997 |
| GCGGGACCTTGGGTTCTAACCTGTTGCCTAG [GCGGGACCTAG_LTGcore_CT_RTGcore_CT] (site GCGGGACCTAG) (LTG core: CT, RTG core: CT) | 2.64 |
| GCGGGACCTTGGGTTCTAACCTGTTGCCTAT [GCGGGACCTAG_LTGcore_CT_RTGcore_AT] (site GCGGGACCTAG) (LTG core: CT, RTG core: AT) | 1.68 |
| GCGGGACCTTGGGTTCTAACCTGTTGCCTCG [GCGGGACCTAG_LTGcore_CT_RTGcore_CG] (site GCGGGACCTAG) (LTG core: CT, RTG core: CG) | 1.7 |
| GCGGGACCTTGGGTTCTAACCTGTTGCCTGA [GCGGGACCTAG_LTGcore_CT_RTGcore_TC] (site GCGGGACCTAG) (LTG core: CT, RTG core: TC) | 0.0737 |
| GCGGGACCTTGGGTTCTAACCTGTTGCCTTG [GCGGGACCTAG_LTGcore_CT_RTGcore_CA] (site GCGGGACCTAG) (LTG core: CT, RTG core: CA) | 1.08 |
| GCGGGACGATGGGTTCTAACCTGTTGCCTAG [GCGGGACCTAG_LTGcore_GA_RTGcore_CT] (site GCGGGACCTAG) (LTG core: GA, RTG core: CT) | 0.171 |
| GCGGGACTATGGGTTCTAACCTGTTGCCTTA [GCGGGACCTAG_LTGcore_TA_RTGcore_TA] (site GCGGGACCTAG) (LTG core: TA, RTG core: TA) | 0.214 |
| GCGGGACTGTGGGTTCTAACCTGTTGCCTAG [GCGGGACCTAG_LTGcore_TG_RTGcore_CT] (site GCGGGACCTAG) (LTG core: TG, RTG core: CT) | 0.316 |
| GCGGGACTTTGGGTTCTAACCTGTTGCCTAA [GCGGGACCTAG_LTGcore_TT_RTGcore_TT] (site GCGGGACCTAG) (LTG core: TT, RTG core: TT) | 0.186 |
| GGACACCAATGGGTTCTAACCTGTTGCCTAG [GGACACCCTAG_LTGcore_AA_RTGcore_CT] (site GGACACCCTAG) (LTG core: AA, RTG core: CT) | 0.294 |
| GGACACCACTGGGTTCTAACCTGTTGCCTGT [GGACACCCTAG_LTGcore_AC_RTGcore_AC] (site GGACACCCTAG) (LTG core: AC, RTG core: AC) | 0.54 |
| GGACACCCATGGGTTCTAACCTGTTGCCTAG [GGACACCCTAG_LTGcore_CA_RTGcore_CT] (site GGACACCCTAG) (LTG core: CA, RTG core: CT) | 0.765 |
| GGACACCCATGGGTTCTAACCTGTTGCCTTG [GGACACCCTAG_LTGcore_CA_RTGcore_CA] (site GGACACCCTAG) (LTG core: CA, RTG core: CA) | 0.0906 |
| GGACACCCCTGGGTTCTAACCTGTTGCCTAG [GGACACCCTAG_LTGcore_CC_RTGcore_CT] (site GGACACCCTAG) (LTG core: CC, RTG core: CT) | 1.3 |
| GGACACCCGTGGGTTCTAACCTGTTGCCTCG [GGACACCCTAG_LTGcore_CG_RTGcore_CG] (site GGACACCCTAG) (LTG core: CG, RTG core: CG) | 0.314 |
| GGACACCCTTGGGTTCTAACCTGTTGCCTAT [GGACACCCTAG_LTGcore_CT_RTGcore_AT] (site GGACACCCTAG) (LTG core: CT, RTG core: AT) | 1.28 |
| GGACACCCTTGGGTTCTAACCTGTTGCCTCG [GGACACCCTAG_LTGcore_CT_RTGcore_CG] (site GGACACCCTAG) (LTG core: CT, RTG core: CG) | 0.306 |
| GGACACCCTTGGGTTCTAACCTGTTGCCTGA [GGACACCCTAG_LTGcore_CT_RTGcore_TC] (site GGACACCCTAG) (LTG core: CT, RTG core: TC) | 1.89 |
| GGACACCCTTGGGTTCTAACCTGTTGCCTGT [GGACACCCTAG_LTGcore_CT_RTGcore_AC] (site GGACACCCTAG) (LTG core: CT, RTG core: AC) | 0.442 |
| GGACACCGATGGGTTCTAACCTGTTGCCTAG [GGACACCCTAG_LTGcore_GA_RTGcore_CT] (site GGACACCCTAG) (LTG core: GA, RTG core: CT) | 0.0895 |
